# From patent US9956232B2, “Dialkyl-phosphinoyl-alkane (Dapa) compounds and compositions for treatment of lower gastrointestinal tract disorders” (priority 2016, dated 2018)
# Legend:
# TRPM8 = TRPM8 (Homo sapiens, UniProt Q7Z2W7); test: TRPM8 receptor agonist assay (Fluo-8 calcium, FLIPR); format: cell-based; design: host or cells: CHO cells, stably transfected
# Method: Compounds were tested on (CHO) cells stably transfected with human TRPM8 cDNAs using a Fluo-8 calcium kit and a Fluorescence Imaging Plate Reader ([…]™) instrument. […] Solutions were prepared by diluting stock solutions in a HEPES-buffered physiological saline (HBPS) solution. Test compound and control formulations were loaded in polypropylene or glass-lined 384-well plates, and placed into the FLIPR instrument (Molecular Devices Corporation, Union City, Calif., USA). Each was tested at 8 concentrations with n=4 replicates per determination. […] For […]™ assay, cells were plated in 384-well black wall, flat clear-bottom microtiter plates (Type: BD Biocoat Poly-D-Lysine Multiwell Cell Culture Plate) at approximately 30,000 cells per well. Cells were incubated at 37° C. overnight to reach a near confluent monolayer appropriate for use in a fluorescence assay. The test procedure was to remove the growth media and to add 40 μL of HBPS containing Fluo-8 for 30 minutes at 37° C. 10 μL of test compound, vehicle, or control solutions in HBPS were added to each well and read for 4 minutes. Concentration-response data were analysed via the FLIPR Control software that is supplied with the FLIPR System (MDS-AT) and fitted to a Hill equation.
# TRPA1 = TRPA1 (Homo sapiens, UniProt O75762); test: TRPA1 calcium imaging (Fura-2AM) in transfected KNRK cells; format: cell-based; design: expressed in transfected cells; host or cells: KNRK cells, transient transfection with Lipofectamine 2000; conditions: KNRK cells transiently transfected with TRPA1
# Method: (§1) DAPA-1-9 was tested on TRPV1 channels and TRPA1 channels expressed in KNRK cells (Kirsten murine sarcoma virus transformed kidney epithelial cells). KNRK cells were cultured as a monolayer and maintained in DMEM (Life Technologies), supplemented with 10% FBS (Life Technologies), 100 units/ml penicillin and 100 μg/ml streptomycin, in an incubator of 5% CO2 at 37° C. After suspension, the cells were coated on cover slips for 12 hours, then transiently transfected with cDNA (pc3.1 DNA) for TRPV1 or TRPA1 with Lipofectamine 2000 (Invitrogen) for 24 hr, and loaded with Fura-2AM™ (Molecular Probes) for 40 min at 37° C. After washing and recovery, KNRK cells were imaged at 340 and 380 nm excitation to detect free calcium influx. An increase of 50% of the 340/380 ratio was considered as the response threshold which were measured under blinded conditions for plasmids. Compounds were applied to the bath and calcium response was acquired by an inverted Nikon fluorescence microscope with a CoolSnap HQ2 CCD camera (Photometrics, Tucson, Ariz.). Data were quantified offline with the Nikon-NIS program.
# TRPV1 = TRPV1 (Homo sapiens, UniProt Q8NER1); test: TRPV1 calcium imaging (Fura-2AM) in transfected KNRK cells; format: cell-based; design: expressed in transfected cells; host or cells: KNRK cells, transient transfection with Lipofectamine 2000; conditions: KNRK cells transiently transfected with TRPV1
# Method: as §1
# [1] = system: pentobarbital-anesthetized male rats; test: Shaking frequency (wet-dog shaking) of anesthetized rats after intravenous, perioral or topical delivery; format: in vivo; conditions: anesthetized rat
# Method: In experiments conducted here, test compounds were evaluated for “wet-dog shaking” as a model of cooling sensation. Using a standardized procedure, test compounds were compared in their ability to stimulate the shaking response by intravenous injection into a cannulated femoral vein, by perioral administration, and by topical delivery to the abdominal skin.
# Each rat was given two injections with a 30 min interval. […] Shaking frequency was counted for 15 min after injection. Shaking was observed immediately after i.v. injection and at least 78% of the total shakes occurred in the first 5 min after injection. The response in the second trial was at least as robust in the first trial, showing the lack of desensitization.
# Test compounds were dissolved in saline and administered by oral gavage to pentobarbital-anesthetized male albino rats at 20 mg/kg at a volume of 0.1 mL/100 g body weight [N=3 to 4 rats per compound]. Shaking was counted over a 40 min period and recorded at 10-min intervals.
# For topical application of DAPA, the abdominal skin of the anesthetized rat was shaved and 20 μL of the pure DAPA was applied with a micropipette onto a ˜1 cm diameter circle of skin, enclosed with a ring of cream [Baby cream “Nevskaya kosmetika Detskyi” Nevskaya Kosmetika Inc., Saint-Petersburg 192029], as shown in FIG. 5D. The number of shakes was counted for 1 hr after application.
# Chain of TRPM8 (Q7Z2W7 whole entry): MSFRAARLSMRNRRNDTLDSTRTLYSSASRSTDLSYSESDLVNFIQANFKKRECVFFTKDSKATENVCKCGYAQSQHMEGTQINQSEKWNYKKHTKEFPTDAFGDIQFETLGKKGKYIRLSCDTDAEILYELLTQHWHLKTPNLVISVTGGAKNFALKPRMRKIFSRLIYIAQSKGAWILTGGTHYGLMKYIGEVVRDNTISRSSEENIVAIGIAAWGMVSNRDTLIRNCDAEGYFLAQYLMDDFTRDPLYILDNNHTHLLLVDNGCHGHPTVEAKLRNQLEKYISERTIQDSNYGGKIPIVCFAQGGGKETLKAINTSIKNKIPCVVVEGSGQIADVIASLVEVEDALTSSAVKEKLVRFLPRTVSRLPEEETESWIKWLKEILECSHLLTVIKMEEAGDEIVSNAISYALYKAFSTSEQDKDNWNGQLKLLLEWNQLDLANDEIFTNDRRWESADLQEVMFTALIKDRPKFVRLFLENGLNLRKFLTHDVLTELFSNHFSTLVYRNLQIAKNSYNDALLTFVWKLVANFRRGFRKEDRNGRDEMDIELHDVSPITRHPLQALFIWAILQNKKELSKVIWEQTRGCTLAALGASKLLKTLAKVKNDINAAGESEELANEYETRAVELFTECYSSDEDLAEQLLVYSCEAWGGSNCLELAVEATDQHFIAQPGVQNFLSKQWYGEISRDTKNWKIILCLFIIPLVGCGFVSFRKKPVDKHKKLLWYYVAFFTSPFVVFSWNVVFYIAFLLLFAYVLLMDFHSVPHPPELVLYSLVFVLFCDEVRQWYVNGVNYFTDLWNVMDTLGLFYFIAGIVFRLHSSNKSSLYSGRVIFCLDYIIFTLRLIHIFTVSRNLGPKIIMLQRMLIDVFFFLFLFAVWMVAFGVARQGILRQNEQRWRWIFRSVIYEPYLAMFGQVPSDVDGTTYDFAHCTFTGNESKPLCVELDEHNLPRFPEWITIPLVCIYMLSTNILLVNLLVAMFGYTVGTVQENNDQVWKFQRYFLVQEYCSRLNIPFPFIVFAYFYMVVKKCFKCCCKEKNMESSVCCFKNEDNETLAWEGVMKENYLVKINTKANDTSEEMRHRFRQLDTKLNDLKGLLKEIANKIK
# Chain of TRPA1 (O75762 whole entry, species assumed): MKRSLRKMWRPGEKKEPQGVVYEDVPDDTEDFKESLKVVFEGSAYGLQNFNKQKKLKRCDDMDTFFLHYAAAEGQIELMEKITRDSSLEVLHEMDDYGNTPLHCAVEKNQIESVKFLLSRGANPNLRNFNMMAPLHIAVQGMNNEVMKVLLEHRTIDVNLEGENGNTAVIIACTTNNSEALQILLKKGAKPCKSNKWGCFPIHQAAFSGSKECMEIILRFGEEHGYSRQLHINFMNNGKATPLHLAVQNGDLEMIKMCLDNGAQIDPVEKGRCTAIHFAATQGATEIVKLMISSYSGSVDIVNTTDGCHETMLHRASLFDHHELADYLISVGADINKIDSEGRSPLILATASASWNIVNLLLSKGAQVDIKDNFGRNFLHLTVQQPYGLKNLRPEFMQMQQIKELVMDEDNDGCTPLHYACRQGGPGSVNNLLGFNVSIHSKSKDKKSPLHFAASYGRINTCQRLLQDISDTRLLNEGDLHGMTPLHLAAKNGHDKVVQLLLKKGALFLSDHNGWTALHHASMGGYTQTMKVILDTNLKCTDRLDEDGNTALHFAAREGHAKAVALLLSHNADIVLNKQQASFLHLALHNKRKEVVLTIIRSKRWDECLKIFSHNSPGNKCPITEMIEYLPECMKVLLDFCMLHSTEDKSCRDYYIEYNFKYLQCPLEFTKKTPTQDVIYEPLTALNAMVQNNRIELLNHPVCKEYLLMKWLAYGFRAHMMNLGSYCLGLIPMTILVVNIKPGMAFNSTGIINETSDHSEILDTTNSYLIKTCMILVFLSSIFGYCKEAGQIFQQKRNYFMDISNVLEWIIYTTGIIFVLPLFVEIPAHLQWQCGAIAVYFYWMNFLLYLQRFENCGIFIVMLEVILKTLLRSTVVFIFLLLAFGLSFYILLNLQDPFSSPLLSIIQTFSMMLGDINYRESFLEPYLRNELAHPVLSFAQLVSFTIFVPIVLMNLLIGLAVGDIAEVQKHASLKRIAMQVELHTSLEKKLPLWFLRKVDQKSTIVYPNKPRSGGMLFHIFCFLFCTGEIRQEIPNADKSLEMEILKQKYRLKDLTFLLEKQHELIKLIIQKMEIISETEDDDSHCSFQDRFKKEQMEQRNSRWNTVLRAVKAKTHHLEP
# Chain of TRPV1 (Q8NER1 whole entry, species assumed): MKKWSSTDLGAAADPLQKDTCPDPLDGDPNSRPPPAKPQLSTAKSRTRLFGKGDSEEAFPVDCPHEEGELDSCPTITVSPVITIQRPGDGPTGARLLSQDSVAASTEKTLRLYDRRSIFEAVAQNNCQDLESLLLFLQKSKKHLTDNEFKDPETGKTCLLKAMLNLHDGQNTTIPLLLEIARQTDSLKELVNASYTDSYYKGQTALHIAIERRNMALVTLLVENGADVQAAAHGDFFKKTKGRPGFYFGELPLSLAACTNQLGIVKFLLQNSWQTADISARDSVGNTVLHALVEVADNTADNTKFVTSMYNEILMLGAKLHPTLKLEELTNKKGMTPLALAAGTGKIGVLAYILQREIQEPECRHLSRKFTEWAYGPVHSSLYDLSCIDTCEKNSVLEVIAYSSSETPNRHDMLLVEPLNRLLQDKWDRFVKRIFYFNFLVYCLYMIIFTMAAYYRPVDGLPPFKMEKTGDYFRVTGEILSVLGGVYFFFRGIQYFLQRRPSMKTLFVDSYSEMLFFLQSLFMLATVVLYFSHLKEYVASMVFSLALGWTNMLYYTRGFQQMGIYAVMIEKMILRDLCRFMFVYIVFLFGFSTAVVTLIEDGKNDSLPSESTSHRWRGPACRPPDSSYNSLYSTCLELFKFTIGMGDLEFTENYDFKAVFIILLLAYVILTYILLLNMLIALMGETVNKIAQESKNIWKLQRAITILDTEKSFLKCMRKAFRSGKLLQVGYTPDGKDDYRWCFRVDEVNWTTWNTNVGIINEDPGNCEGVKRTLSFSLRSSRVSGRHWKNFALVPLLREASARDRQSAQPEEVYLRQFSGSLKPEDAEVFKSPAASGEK
smiles,measurement,setting,value
"CCCCCCCCCP(=O)(C(C)C)C(C)C [DIPA-1-9, 1-[Diisopropyl-phosphinoyl]-nonane]",×Menthol,TRPM8; TRPM8 relative potency as repeated in Table 4,4.0
same,Relative Potency,TRPM8; relative to menthol = 1.0 (Table 2),4.0
same,agonist or antagonist activities against TRPA1,TRPA1,devoid of agonist or antagonist activities
same,agonist or antagonist activities against TRPV1,TRPV1,devoid of agonist or antagonist activities
same,"Shaking frequency, Intravenous","[1]; 2 mg/kg i.v., 2nd trial, counted for 15 min",3 ± 1 shakes
same,"Shaking frequency, Perioral","[1]; 20 mg/kg by oral gavage, counted for 40 min",0 shakes
same,"Shaking frequency, Topical","[1]; 20 μL pure compound on shaved abdominal skin, counted for 1 hr",0 shakes
